From publication PMC8997995, “Amphiphilic Cell-Penetrating Peptides Containing Natural and Unnatural Amino Acids as Drug Delivery Agents” (Cells, 2022)
Non-standard residues stand in square brackets, D forms with d. Residues, ends and D or L forms follow the SMILES beside them. Dip = N[C@H](C(=O)O)C(c1ccccc1)c1ccccc1

Tested on: SK-OV-3 cells
Assay: Cellular uptake by flow cytometry in SK-OV-3 cells
Format: cell-based, human
Conditions: SK-OV-3, F’-FTC 2 µM, peptide 10 µM, 3 h
Procedure: CCRF-CEM and SK-OV-3 cells were used to measure the cellular uptake of a fluorescent-labeled phosphopeptide (F’-GpYEEI) (2 µM), stavudine (F’-d4T) (2 µM) lamivudine (F’-3TC) (1–2 µM), emtricitabine (F’-FTC) (2 µM), and siRNA (F’-siRNA) (36 nM) with the least toxic concentration for each linear and the cyclic peptide (10 µM). The uptake was measured in the presence and absence of the peptides. The SK-OV-3 (0.5 million) and CCRF-CEM (a million) cells were incubated in each well of 6-well plates with the synthesized peptide and the fluorescent-labeled compound in one well. Another well contained the fluorescent-labeled compound alone for 3 h in an incubator (37 °C in a humidified atmosphere of 5% CO2). […] For more details, please refer back to the cytotoxicity method described above.
The cells were transferred to FACS analysis tubes after being washed with phosphate-buffered saline (PBS). […] Finally, the cells were resuspended in flow cytometry buffer and analyzed by flow cytometry (FACSVerse model, Becton Dickinson, San Jose, CA, USA) using the FITC channel and the BD FACSuite software. […] Finally, the cells were analyzed by using FITC channel […] argon laser for the excitation and the emitted 519 nm fluorescence for detection. […] Results were evaluated to determine whether the peptides are facilitating the fluorescence compound to cross the membrane.

SMILES: N=C(N)NCCC[C@@H]1NC(=O)[C@H](C(c2ccccc2)c2ccccc2)NC(=O)[C@H](CCCNC(=N)N)NC(=O)[C@H](C(c2ccccc2)c2ccccc2)NC(=O)[C@H](CCCNC(=N)N)NC(=O)[C@H](C(c2ccccc2)c2ccccc2)NC(=O)[C@H](CCCNC(=N)N)NC(=O)[C@H](C(c2ccccc2)c2ccccc2)NC(=O)[C@H](CCCNC(=N)N)NC(=O)[C@H](C(c2ccccc2)c2ccccc2)NC1=O [[DipR]5] (cyclo([Dip]R[Dip]R[Dip]R[Dip]R[Dip]R))
- increase of cellular uptake of F’-FTC: 6 fold
